Series [1] in a line: Cytotoxicity on normal B-cells from volunteers. The class given is cell-based, human. To be noted: human, normal B-cells from volunteers.
A short description of series [2]: Mouse toxicity, maximum tolerated dose by intravenous injection. The settings on record: in vivo, maximum dose by intravenous injection without deaths after 24 hrs.
The subject of another series is PP2A. The experiment in a line: PP2A activity in 32D:BCR/Abl chronic myelogenous leukemia cells (PP2A immunoprecipitation assay). To be noted: 1 μM, 30 minutes. The series is classed as cell-based. As for the experimental part: FIGS. 4A-4B. The BMOE-linked dimer peptide COG449 activates PP2A in CML cells. FIG. 4A: 32D-BCR/Abl chronic myelogenous leukemia cells were treated with COG449 (1 μM), COG445 (1 μM) (disulfide-linked COG112 dimer) or no treatment, and the PP2A activity was measured. FIG. 4B: 32D:BCR/Abl cell cultures were treated with no compound, 1 μM COG449, or 5 μM FTY720 for 30 minutes followed by lysis in an NP40 lysis buffer. PP2A was immunoprecipitated and assayed with the PP2A Immunoprecipitation assay kit (Upstate) according to the manufacturer's directions.
To further evaluate the effect of COG449, we measured the ability of the stable dimerized COG449 compound to activate PP2A in 32D:p210^BCR/Abl chronic myelogenous leukemia cells. […] 32D:p210^BCR/Abl chronic myelogenous leukemia cells were treated with no compound, 1 μM COG449, or 5 μM FTY720. We observed a robust increase of approximately 45% relative specific activity (phosphate release/minute/unit protein) of PP2A upon treatment with COG449 alone when compared to the untreated control, and about 20% activation compared with FTY720 (FIG. 4B).

Another series has as its system U87MG glioblastoma cells. The class given is cell-based. To be noted: MTT. As for the experimental part:
FIG. 14A: Dose response curve of COG445 on proliferation of U87 (open circles) and MDA-MB-231 (filled circles) cells as measured by MTT reduction. FIG. 14B: Dose response curve of COG445 on proliferation of MDA-MB-231 cells as measured by cell count.
To determine whether ApoE peptide dimers were cytotoxic to other types of cancer, we evaluated the effect of three different ApoE BMOE-linked peptide dimers (COG449, COG492, COG493; see Table I) on the growth characteristics of U87MG glioblastoma cells. Various concentrations of COG449, COG492, COG493 or Sorafenib were used to treat U87MG glioblastoma cells and viable cells were quanititated using MTT. Sorafenib, which has previously been reported to be cytotoxic to glioblastoma cells (Yang et al. (2010) Mol Cancer Ther., Vol. 9(4):953-962), was used as a positive control.
Because COG445 inhibited Akt activation and downstream signaling, we examined the effects of COG445 on cellular proliferation. Adherent MB231 and U87 cells were grown for ˜24 hours in the presence of COG445 and cellular proliferation was measured by MTT reduction. […] Furthermore, COG445 inhibited MB231 cellular proliferation as determined by cell count (FIG. 14B). Approximately 6×10^4 cells were plated in growth media (RPMI+10% FBS) for 24-hours with increasing concentrations of COG445. […] However at concentrations ≧1 μM COG445, there appears to be a loss of cells. This is partially explained by decreased proliferation, although it is possible that the rate of cellular degradation was increased in the presence of COG445.

The subject of another series is CLL cells. To be noted: 24 h. As for the experimental part: We next sought to determine whether SET antagonism would destabilize Mcl-1. Destabilization of Mcl-1 by treatment with SET antagonists was evaluated by treating primary human CLL cells for 24 hr with the ApoE peptide dimer COG449 (a BMOE-linked dimer of COG112; see Example 2) and evaluating the level of Mcl-1 in the cells.

The test system of series [3] is Ramos cell line of Burkitt's lymphoma. The experiment in a line: Growth of Ramos cells in culture. The series is classed as cell-based. The settings on record: read-out: EC50 growth inhibition in culture.
The test system of the next series is breast cancer cell lines. The experiment in a line: Cytotoxicity in breast cancer cell lines by cell counting. The series is classed as cell-based, human. To be noted: serum-free media, 24 hrs. Here is the method:
FIG. 28. Cytotoxic effects of COG449 in breast cancer cells. Cell lines were grown in serum-free media and COG449 as indicated for 24 hrs. Cellular proliferation was measured by cell counting. Cell number is represented relative to control, untreated cells.

The next series relates to MDA-231 cells. The experiment in a line: Combination treatment of MDA-231 cells (MTT). The class given is cell-based. The settings on record: sub-lethal doses, 48 hrs, greater than either compound alone. As for the experimental part: FIG. 29. Combination treatment with COG449 and sorafenib or gefitinb on triple negative breast cancer (TNBC) cell line growth. MDA-231 cells were grown in the presence of COG449, sorafenib, or gefitinb at sub-lethal doses as indicated. After 48 hrs, live cells were quantified using the MTT assay. *** indicates p<0.001.
(§1) To begin assessment of the potential of combination therapies with COG449, we analyzed the effect of treating MDA-231 cells with sub-lethal doses of COG449 and the multi-kinase inhibitor Sorafenib or the EGFR inhibitor Gefitinib at concentrations below their ED50 doses. […] We also evaluated the effects of COG449 in vivo using xenograft experiments. To determine whether COG449 might be effective against TNBC tumors in xenografts, immune compromised NOD/SCID gamma-chain null (NSG) mice were injected with MDA-231 cells into their 4th mammary glands. Once tumors became palpable at around 10 days, tumors were treated by […] subcutaneous injection of COG449 at 10 mg/kg. At 28 days post-xenograft, daily intra-tumor injection of COG449 was initiated and continued until sacrifice (FIG. 30A). In order to use a more clinically relevant treatment paradigm, MDA-231 xenografted mice were treated 3-times a week with 1 mg/kg COG449 by intravenous injection (FIG. 30B).

In another series the test system is MDA-MB-231 xenografts. The series can be described thus: MDA-MB-231 TNBC xenografts in NSG mice. The series is classed as in vivo. The settings on record: both xenograft studies. Here is the method:
FIGS. 30A-30B. Inhibition of triple negative breast cancer (TNBC) tumor growth in xenografts with COG449 treatment. FIG. 30A: 4×10^6 MDA-MB-231 cells were injected with Matrigel into the 4th mammary glands of immune compromised mice and treated daily by subcutaneous injection of 10 mg/kg COG449 starting at day 10. FIG. 30B: 4×10^6 MDA-MB-231 cells were injected with Matrigel into the 4th mammary glands of immune compromised mice and treated by intravenous tail vein injection 3× week at 1 mg/kg starting at day 27 post injection. Tumor volume was determined by caliper measurement.
as §1, with “In order to use a more clinically relevant treatment paradigm, MDA-231 xenografted mice were treated 3-times a week with 1 mg/kg COG449 by intravenous injection (FIG. 30B).” left out

A short description of series [4]: Tolerability of COG449 by intravenous infusion. The series is classed as in vivo.

Starred links: 1 amine or outer side, 2 acyl side, 3 side chain; linkers in the order of their positions; H or OH if unused. Positions of bridges follow the written chain, without caps; N, C: chain ends. Chains are numbered I, II in the order given. BMOE = O=C1CC([*:1])C(=O)N1CCN1C(=O)CC([*:2])C1=O

Usually EC50 stands for the concentration at which the effect is half-maximal. As usually defined, the MTD is the largest dose that counted as tolerated. A high value points to better tolerability.

In series [1], “I: Ac-RQIKIWFQNRRMKWKKCLRVRLASHLRKLRKRLL-NH2 / II: Ac-RQIKIWFQNRRMKWKKCLRVRLASHLRKLRKRLL-NH2 (linker I:17-II:17 via BMOE) [COG449, COG112-C-BMOE-C-COG112]” registered an EC50 at 72 h greater than 10000 nM. The substance further displayed an MTD at 24 h in series [2] of 12 mg/kg. Further, the “increase of relative specific activity of PP2A compared to untreated control” value with PP2A is recorded as “approximately 45%”. Further, in the series on U87MG glioblastoma cells, the “cytotoxicity to U87MG cells” value is reported as “cytotoxic”. The substance also gave an EC50 with CLL cells of roughly 110 nM. In series [3], the EC50 is 125 nM. Besides, in the series with breast cancer cell lines, the “cytotoxicity to breast cancer cell lines incl. MDA-231, MDA-468, HCC38” value was “cytotoxic to all cell lines”. Further, in the series on MDA-231 cells, the “cytotoxic effect in combination with Gefitinib” value is reported as “robust cytotoxic effect” and the “cytotoxic effect in combination with Sorafenib” value is recorded as “robust cytotoxic effect”. Also, the “cytotoxic effects in mice” value in the series on MDA-MB-231 xenografts is on record as “No cytotoxic effects”. In addition, the first adverse events result in [4] (20 mg/kg) is “mild edema in the front paws and lethargy”. Also, the adverse effects entry in series [4] (intravenous infusion, 10-15 mg/kg) is given as “without any observed adverse effects”.

Values taken from patent US9809640B2, “ApoE peptide dimers and uses thereof” (priority 2010, dated 2017).
